# Assay: Copper-ions chelating capacity (LDL oxidation at increasing CuSO4)
# Assay type: biochemical
# Conditions: 25 μmol/L of EDTA; TBARS, two hours, 37° C.
# Protocol: In order to examine whether pomegranate juice inhibits LDL oxidation by chelation of metal ions, LDL (100 mg of protein/L) was incubated with 0.2 mL of pomegranate juice/L (0.56 μmol of polyphenols/L) in the presence of increasing concentrations of copper ions. Incubation of LDL with 25 μmol/L of Na2 EDTA served as a positive control, as EDTA is a potent chelator of metal ions. […] At higher copper ion concentrations, EDTA could no longer overcome the pro-oxidative effect of CuSO4.
compound,measurement,value
"O=C([O-])CN(CCN(CC(=O)[O-])CC(=O)O)CC(=O)O.[Na+].[Na+] [EDTA, Na2 EDTA]",CuSO4 concentration up to which copper ion-induced LDL oxidation was inhibited,up to 40 μmol/L

# Reference: patent US6375993B1, “Pomegranate extracts and methods of using thereof” (priority 1999, dated 2002)
